Reference: PMC10906223 (JCI Insight, 2024)
“And” between values parts separate entries of the source, which are not always exact repeats. Equal entries are not always repeated.

Assays:
EphA4 receptor = target: T1, EphA4 receptor (Mus musculus, UniProt Q03137); experiment: ELISA: competition between WCDD301 and Ephrin-A5 Fc for binding to EphA4; conditions: for Bound Ephrin (WCDD301, 0.01 µM) / Bound Ephrin (WCDD301, 0.1 µM) / Bound Ephrin (WCDD301, 1 µM): Figure 1E; for Bound Ephrin-A5 (ELISA signal) / AUC of competition curve: Figure 1D; for AUC of competition curve: EphA4 3 μg/mL, mean ± SD
T1 construct: purchased R&D Systems 641-A4-200
T1 sequence (Q03137 with tags, fused parts or gaps limits assumed): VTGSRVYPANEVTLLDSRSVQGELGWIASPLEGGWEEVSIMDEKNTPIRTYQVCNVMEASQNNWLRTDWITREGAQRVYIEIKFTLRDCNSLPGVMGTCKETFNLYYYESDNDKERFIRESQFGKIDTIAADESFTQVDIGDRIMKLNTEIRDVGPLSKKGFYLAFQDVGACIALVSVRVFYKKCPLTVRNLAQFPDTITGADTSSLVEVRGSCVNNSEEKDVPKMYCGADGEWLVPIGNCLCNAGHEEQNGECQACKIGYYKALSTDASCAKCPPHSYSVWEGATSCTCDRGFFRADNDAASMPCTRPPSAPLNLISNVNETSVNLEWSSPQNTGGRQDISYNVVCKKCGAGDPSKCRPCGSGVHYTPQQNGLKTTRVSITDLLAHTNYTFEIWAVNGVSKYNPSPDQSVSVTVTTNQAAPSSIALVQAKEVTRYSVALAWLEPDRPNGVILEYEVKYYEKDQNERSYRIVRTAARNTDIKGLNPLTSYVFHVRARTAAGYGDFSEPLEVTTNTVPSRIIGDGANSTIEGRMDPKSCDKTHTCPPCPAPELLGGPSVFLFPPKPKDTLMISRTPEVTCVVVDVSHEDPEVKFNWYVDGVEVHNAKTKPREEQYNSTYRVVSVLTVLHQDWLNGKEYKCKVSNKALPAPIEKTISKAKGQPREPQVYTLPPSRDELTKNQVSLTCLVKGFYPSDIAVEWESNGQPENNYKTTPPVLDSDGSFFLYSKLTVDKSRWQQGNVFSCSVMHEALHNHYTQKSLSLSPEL
Experimental: Wells of the protein A–coated microplate (Pierce, catalog 15132) were washed using 200 μL of binding buffer (PBS supplemented by 0.01% Tween 20). Recombinant mouse EphA4 Fc chimera protein (R&D Systems, catalog 641-A4-200) was reconstituted in 1× PBS (Genesee, catalog 25-507XB, pH 7.2 ± 0.1), diluted to 3 μg/mL using binding buffer, dispensed (100 μL) in each well, and rocked on a belly dancer shaker (3 hours at room temperature, RT). Following 3 washes in the binding buffer, blocking was done using blocking buffer (5% BSA in binding buffer) for 3 hours at RT. Then, after 5 washes, the reconstituted recombinant mouse Ephrin-A5 Fc (R&D Systems, catalog 7396-EA-050) was added (100 μL) into each well and rocked for 2.5 hours on the shaker (Ephrin-A5 Fc concentrations were used as described in the Results section). After 7 washes using binding buffer, alkaline phosphatase–conjugated antibody against Ephrin-A5 was diluted (1:1,000) in the binding buffer plus 2% BSA, added to each well, and incubated at 4°C, overnight. Conjugation of the anti-EFNA5 antibody (Abnova, catalog H00001946-M02; 0.5 mg/mL; target sequence 114–203) was done using Abcam conjugation kit (catalog ab102850) based on the manufacturer’s instruction. After washing 7 times, p-nitrophenyl phosphate tablet (MilliporeSigma, catalog N1891) was reconstituted in 5 mL of PBS and added to each well (100 μL). Following 1 hour shaking at RT in the dark, reaction was stopped by adding 100 μL of 3N NaOH. OD was read at 405 nm within 5 minutes using the microplate reader (Agilent BioTek Cytation 5).
We took following the approaches to assay competition between Ephrin-A5 and WCDD301 for binding to the EphA4 receptor. Wells of the microplate were coated by a fixed level of EphA4 Fc (3.5 pmol/well), and competition experiments with Ephrin-A5 and WCDD301 were performed as listed in Supplemental Tables 3 and 4. We determined the KD value for each condition by means of Michaelis-Menten best fit analysis in GraphPad Prism software version 4. To control for potential interaction between WCDD301 and Ephrin-A5 Fc, we coated wells of a microplate using Ephrin-A5 Fc and then incubated them with or without WCDD301 (0.2 μM).

[1] = tested on: human dispersed islet cells; experiment: Immunofluorescence: EphA4 intensity in glucagon+ human dispersed islet cells; type: cell-based;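 as to EphA4 intensity: ImageJ intensity within ROI drawn around each glucagon+ cell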
Experimental: Coverslips were treated with WCDD301, preclustered Ephrin-A5 Fc, or preclustered Fc in the following sequential order: KRBH (11 mM glucose, 30 minutes), KRBH (1 mM glucose, 60 minutes), KRBH (1 mM glucose, 30 minutes), and KRBH (11 mM glucose, 60 minutes). After treatment, coverslips were washed once in PBS, fixed in 2% paraformaldehyde in PBS (30 minutes), and again washed in PBS. […] Following wash in PBS, coverslips were incubated in a mixture of Alexa Fluor 555 Phalloidin (Cell Signaling Technology, catalog 8953) and secondary antibodies (goat anti-rabbit Alexa Fluor 488, catalog A-21094, 1:1,000, Molecular Probes; and goat anti-mouse Alexa Fluor 633, catalog A21052, 1:1,000, Life Technologies) for 1 hour at RT. Both primary and secondary antibodies were diluted in blocking buffer containing 0.05% Tween 20. Coverslips were washed using PBS and counterstained by using DAPI (1:1,000) for 10 minutes. Following 2 washes in PBS, coverslips were mounted on glass slides using ProLong Glass Antifade Mountant (Invitrogen, catalog P36980). Images were captured using the Zeiss LSM880 microscope with a Plan-Apochromat 63× 1.4 NA objective lens by setting dual-band dichroic/filter for 405, 488, 561, and 633 nm laser excitation. For each slide, 25–30 fields of view were scanned, and in each field of view, 3–5 cells were imaged. […] Values of intensity were compared among groups using 1-way ANOVA, α = 0.05.

diabetic NOD mice = experiment: Plasma glutamine in NOD mice; type: in vivo, mouse; conditions: WCDD301 group of NOD mice; quantity not given
Experimental: Terminal blood was collected into microfuge tubes containing K2-EDTA (supplemented by 45 mM phenylmethylsulphonyl fluoride and 0.77 μM aprotinin) through cardiac puncture. Plasma was separated by centrifugation (2,000g for 10 minutes at 4°C) and kept at –80°C until analysis. Plasma samples with hemolysis were excluded from the study. […] Values of BUN, creatinine, ALB, ALT, and AST were determined by a Roche Cobas C501 Autoanalyzer as performed by the Washington University Diabetes Research Center Translational Diagnostics Core. Reference intervals of blood chemistry parameters for inbred NOD mice were extracted from the Mouse Phenome Database (https://phenome.jax.org/).

CC(=O)OCC(N)(COC(C)=O)COC(C)=O [WCDD301, 2-(acetoxymethyl)-2-aminopropane-1,3-diyl diacetate]
Competition with Ephrin-A5 for EphA4 (EphA4 receptor; AUC analysis): competes with the natural ligand, Ephrin-A5 | Bound Ephrin (WCDD301, 0.01 µM) (EphA4 receptor; Ephrin-A5 Fc 2 nM): 0.051 and 0.05 and 0.052 | Bound Ephrin (WCDD301, 0.1 µM) (EphA4 receptor; Ephrin-A5 Fc 2 nM): 0.05 and 0.06 | Bound Ephrin (WCDD301, 1 µM) (EphA4 receptor; Ephrin-A5 Fc 2 nM): 0.03 and 0.04 | Bound Ephrin (WCDD301, 0.01 µM) (EphA4 receptor; Ephrin-A5 Fc 4 nM): 0.061 and 0.07 and 0.064 | Bound Ephrin (WCDD301, 0.1 µM) (EphA4 receptor; Ephrin-A5 Fc 4 nM): 0.062 and 0.064 and 0.07 | Bound Ephrin (WCDD301, 1 µM) (EphA4 receptor; Ephrin-A5 Fc 4 nM): 0.04 and 0.05 | Bound Ephrin (WCDD301, 0.01 µM) (EphA4 receptor; Ephrin-A5 Fc 8 nM): 0.142 and 0.122 and 0.156 | Bound Ephrin (WCDD301, 0.1 µM) (EphA4 receptor; Ephrin-A5 Fc 8 nM): 0.119 and 0.121 and 0.098 | Bound Ephrin (WCDD301, 1 µM) (EphA4 receptor; Ephrin-A5 Fc 8 nM): 0.1 and 0.104 and 0.11 | Bound Ephrin (WCDD301, 0.01 µM) (EphA4 receptor; Ephrin-A5 Fc 16 nM): 0.18 and 0.189 and 0.209 | Bound Ephrin (WCDD301, 0.1 µM) (EphA4 receptor; Ephrin-A5 Fc 16 nM): 0.141 and 0.137 and 0.119 | Bound Ephrin (WCDD301, 1 µM) (EphA4 receptor; Ephrin-A5 Fc 16 nM): 0.145 and 0.115 and 0.125 | Bound Ephrin (WCDD301, 0.01 µM) (EphA4 receptor; Ephrin-A5 Fc 32 nM): 0.265 and 0.289 and 0.221 | Bound Ephrin (WCDD301, 0.1 µM) (EphA4 receptor; Ephrin-A5 Fc 32 nM): 0.21 and 0.269 and 0.243 | Bound Ephrin (WCDD301, 1 µM) (EphA4 receptor; Ephrin-A5 Fc 32 nM): 0.234 and 0.189 and 0.171 | Bound Ephrin (WCDD301, 0.01 µM) (EphA4 receptor; Ephrin-A5 Fc 64 nM): 0.321 and 0.34 and 0.365 | Bound Ephrin (WCDD301, 0.1 µM) (EphA4 receptor; Ephrin-A5 Fc 64 nM): 0.301 and 0.29 and 0.27 | Bound Ephrin (WCDD301, 1 µM) (EphA4 receptor; Ephrin-A5 Fc 64 nM): 0.28 and 0.27 and 0.26 | Bound Ephrin-A5 (ELISA signal) (EphA4 receptor; WCDD301 0.0625 µM, Ephrin-A5 (2 nM)): 0.1 and 0.12 | Bound Ephrin-A5 (ELISA signal) (EphA4 receptor; WCDD301 0.0625 µM, Ephrin-A5 (4 nM), c4-c6): 0.217 and 0.196 and 0.19 | Bound Ephrin-A5 (ELISA signal) (EphA4 receptor; WCDD301 0.0625 µM, Ephrin-A5 (4 nM), third group c7-c9): 0.23 and 0.236 and 0.246 | Bound Ephrin-A5 (ELISA signal) (EphA4 receptor; WCDD301 0.0625 µM, Ephrin-A5 (8 nM)): 0.237 and 0.247 and 0.265 | Bound Ephrin-A5 (ELISA signal) (EphA4 receptor; WCDD301 0.125 µM, Ephrin-A5 (2 nM)): 0.086 and 0.108 and 0.1 | Bound Ephrin-A5 (ELISA signal) (EphA4 receptor; WCDD301 0.125 µM, Ephrin-A5 (4 nM), c4-c6): 0.202 and 0.18 and 0.187 | Bound Ephrin-A5 (ELISA signal) (EphA4 receptor; WCDD301 0.125 µM, Ephrin-A5 (4 nM), third group c7-c9): 0.208 and 0.216 | Bound Ephrin-A5 (ELISA signal) (EphA4 receptor; WCDD301 0.125 µM, Ephrin-A5 (8 nM)): 0.236 and 0.233 and 0.234 | Bound Ephrin-A5 (ELISA signal) (EphA4 receptor; WCDD301 0.25 µM, Ephrin-A5 (2 nM)): 0.072 and 0.073 and 0.082 | Bound Ephrin-A5 (ELISA signal) (EphA4 receptor; WCDD301 0.25 µM, Ephrin-A5 (4 nM), c4-c6): 0.148 and 0.141 and 0.169 | Bound Ephrin-A5 (ELISA signal) (EphA4 receptor; WCDD301 0.25 µM, Ephrin-A5 (4 nM), third group c7-c9): 0.201 and 0.205 and 0.203 | Bound Ephrin-A5 (ELISA signal) (EphA4 receptor; WCDD301 0.25 µM, Ephrin-A5 (8 nM)): 0.222 and 0.22 and 0.212 | AUC of competition curve (EphA4 receptor; at 2 nM): 0.025 ± 0.0011 AU | AUC of competition curve (EphA4 receptor; at 4 nM): 0.0469 ± 0.0014 AU | AUC of competition curve (EphA4 receptor; at 6 nM): 0.0554 ± 0.0006 AU | AUC of competition curve (EphA4 receptor; at 8 nM): 0.0617 ± 0.0011 AU | EphA4 intensity ([1]; human cells, individual values, Figure 3G): 58.8 and 45.8 and 8.0 and 57.8 and 32.5 and 5.4 and 45.9 and 14.9 and 11.0 | Effect on intracellular EphA4 ([1]; α cells, human donors): increased intracellular EphA4 intensity | Plasma glutamine (Figure 7B) (diabetic NOD mice): 0.7 and 0.74 and 0.65 and 0.71
